This note sets out measurements from the supplement of paper PMC10307832.

Holding throughout (test): relative viability (nuclei count vs DMSO), 5 days (fraction); higher = more cells survive
Compound in experiment [1]: C1/C(=C\C2=CC=CS2)/C(=O)/C(=C/C3=CC=CS3)/C1 + CC1(C)CCC(c2ccc(Cl)cc2)=C(CN2CCN(c3ccc(C(=O)NS(=O)(=O)c4ccc(N[C@H](CCN5CCOCC5)CSc5ccccc5)c(S(=O)(=O)C(F)(F)F)c4)cc3)CC2)C1 [Navitoclax] (partner 0.5 µM)
In short, it runs like this:
(§1)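 Medians of duplicate plates are given as relative viability. That measure is the nuclei count in treated wells divided by the count in vehicle wells. Counts were taken on 4× images of lung cancer cell lines in 1536-well plates, 5 days after pin-tool dosing the day after seeding with one drug alone or a fixed anchor-drug dose plus five library-drug doses (not always all listed) in √10 steps.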

Compound in experiment [2]: C[C@]12O[C@H](C[C@]1(O)CO)n1c3ccccc3c3c4c(c5c6ccccc6n2c5c31)CNC4=O [Lestaurtinib] + Cc1cc(Nc2cc(N3CCN(C)CC3)nc(Sc3ccc(NC(=O)C4CC4)cc3)n2)n[nH]1 [Tozasertib] (partner 0.1 µM)
In short, it runs like this: as §1

Compound in the experiment “TPCA-1 + Pemetrexed”: C1=CC(=CC=C1C2=CC(=C(S2)NC(=O)N)C(=O)N)F [TPCA-1] + Nc1nc2[nH]cc(CCc3ccc(C(=O)N[C@@H](CCC(=O)O)C(=O)O)cc3)c2c(=O)[nH]1 [Pemetrexed] (partner 0.2 µM)
The method in brief: as §1

Compound in the experiment “TPCA-1 + Alpelisib”: C1=CC(=CC=C1C2=CC(=C(S2)NC(=O)N)C(=O)N)F [TPCA-1] + Cc1nc(NC(=O)N2CCC[C@H]2C(N)=O)sc1-c1ccnc(C(C)(C)C(F)(F)F)c1 [Alpelisib] (partner 2 µM)
In short, it runs like this:
as §1

For the cell line UMC-11, the relative viability came to 0.302 in experiment [1] (first compound 0.2 µM); 0.362 in experiment [1] (first compound 0.6325 µM); 0.307 in experiment [1] (first compound 2 µM); 0.307 in experiment [1] (first compound 20 µM); 0.21 in experiment [2] (first compound 0.005 µM); 0.206 in experiment [2] (first compound 0.01581 µM). For the same cell line, the relative viability in experiment [2] (first compound 0.05 µM) came out at 0.217; in experiment [2] (first compound 0.1581 µM), 0.18; in experiment [2] (first compound 0.5 µM), 0.179; with TPCA-1 + Pemetrexed (first compound 0.04 µM) it was 0.809; in the experiment with TPCA-1 + Pemetrexed (first compound 0.1265 µM) it was 0.763; with TPCA-1 + Pemetrexed (first compound 0.4 µM), 0.843. The relative viability stood at 0.776 with TPCA-1 + Pemetrexed (first compound 1.265 µM); 0.799 with TPCA-1 + Pemetrexed (first compound 4 µM); 0.988 with TPCA-1 + Alpelisib (first compound 0.04 µM); 0.946 with TPCA-1 + Alpelisib (first compound 0.1265 µM); 1.05 in the experiment with TPCA-1 + Alpelisib (first compound 0.4 µM); 0.96 with TPCA-1 + Alpelisib (first compound 1.265 µM). In addition, the relative viability with TPCA-1 + Alpelisib (first compound 4 µM) is 0.731.
